Ends that are not written are not given here.
What was measured:
[1] = test system: synaptically-coupled rat hypothalamic neurons; experiment: voltage clamp recording of postsynaptic currents in cultured hypothalamic neurons; assay type: cell-based
Procedure: To test this hypothesis, 10-day cultures of synaptically-coupled rat hypothalamic neurons were prepared and postsynaptic currents were recorded under voltage clamp.
Rat hypothalamus from 18-day embryos was cultured for 10 days in vitro. The mediobasal hypothalamus was removed from embryonic day 18 Sprague Dawley rats. The tissue was enzymatically digested in a mild protease solution (10 U/ml papain and 0.2 mg/ml L-cysteine in Earle's balanced salt solution) for 30 minutes. Next, the tissue was pelleted, and the protease solution was removed. Tissue was then suspended in standard tissue culture medium (glutamate- and […] DMEM supplemented with 10% fetal bovine serum, 100 U/ml penicillin/streptomycin, and 6 gm/l glucose) and then triturated into a single-cell suspension. Cells were washed and pelleted an additional three times. The single-cell suspension was plated onto 22 mm^2 glass coverslips that had been coated with high-molecular-weight (540,000 Da) poly-D-lysine. High-density cultures (200,000/cm^2) were used for all experiments. Hypothalamic neural cultures were maintained in a Napco 3600 incubator (37 degree Celsius and 5% CO2) until they were ready for use. To limit non-neuronal cell proliferation cytosine arabinofuranoside (1 μM) was added to the tissue culture medium 1 day after plating.
Synaptically coupled hypothalamic neurons were recorded in voltage clamp with a whole cell pipette (holding potential=−60 mV). This recording is typical of 9 of 12 cells examined under these conditions. […] Inset boxes show higher resolution of the events indicated by the dotted line. Both boxes (in FIGS. 7A and B) were recorded with an identical delay after hcrt2 administration. A less mature hypothalamic neuron after 4 days of culture was unresponsive to 1 μM hcrt2 (FIG. 7B). Pipette solution contained 128 mM KMeSO4, 27 mM KCl, 0.4 mM EGTA, 1 mM ATP, and 0.5 mM GTP.

[2] = test system: synaptically coupled hippocampal dentate granule neurons in culture; experiment: voltage clamp recording in cultured hippocampal dentate granule neurons; assay type: cell-based
[3] = body temperature by telemetry after intracerebroventricular infusion; assay type: in vivo, rats
Procedure: (§1) Synthetic, amidated hcrt2 peptide at different concentrations was infused intracerebroventricularly in rats and body temperature by was monitored telemetry. Stereotactic ablation studies have previously implicated the dorsal-lateral hypothalamus in feeding behavior, blood pressure, and central regulation of immune function, although precise nuclei have not been correlated with these activities. A threshold-type response was obtained in which, at the highest dose, 10 μg, body temperature dropped from 37.7 to 36.7 degrees Celsius over 30 minutes following administration, then recovered to normal over 2 hours. Food intake was monitored over 2 hours following administration and a 40% reduction in food intake was measured at a dose of 5 μg. […] The presumed target cells of hypocretin may not be very accessible by this unphysiological mode of administration. Local injection or intravenous administration of hypocretin might be more suitable for physiological studies.

[4] = food intake after intracerebroventricular infusion; assay type: in vivo, rats; details: 5 μg ICV; monitored over 2 hours following administration
Procedure: as §1

[5] = 1 μM applied to bath, 10 days in vitro, holding potential −60 mV
[6] = 1 μM, 10-day cultures, voltage clamp

hcrt2: synthetic peptide corresponding to amidated hcrt2; preprohypocretin residues about 70 to 96 (SEQ ID NO:10; unamidated form SEQ ID NO:9) (PGPPGLQGRLQRLLQANGNHAAGILTM-NH2)
cells showing the typical recording (increased PSC frequency) [1, 5]: 9 of 12
increase in frequency of postsynaptic events (PSCs) [1, 5]: ≤ 400%
cells showing no response [1, 6]: 25%
neurons tested showing substantial, reversible increase in the frequency of postsynaptic currents [1, 6]: 75%
response of less mature hypothalamic neuron after 4 days of culture ([1]; 1 μM, 4 days of culture (FIG. 7B)): unresponsive
frequency of PSCs after washout of the peptide ([1]; after washout of 1 μM): returned to normal baseline levels
electrical responses in voltage clamp experiments (FIGS. 7A-7B legend) ([1]; application of 1 μg, isolated in vitro rat hypothalamic cells): produced electrical responses in adult but not immature neurons
response of hypothalamic neurons in culture for only 3-5 days ([1]; neurons 3-5 days in culture): little response
response of hippocampal dentate granule neurons [2]: no response
body temperature after administration ([3]; 10 μg (highest dose) ICV, dropped from 37.7 over 30 minutes): 36.7 degrees Celsius
time to recovery of body temperature to normal ([3]; 10 μg ICV): 2 h
reduction in food intake [4]: 40%
